Key:
MDA-MB-231 cells = assay: Cell viability assay; type: cell-based, human; details: for sensitivity to PARP inhibitor, clonogenic cell survival and cell viability: c-Met knockdown vs control, cells expressing wild-type PARP1, FIGS. 3H, 13D-E; for sensitivity of cells to PARP inhibitors: MDA-MB-231, c-Met inhibitor with ABT-888 (cell viability) or AG014699 (clonogenic), FIGS. 2D-E, 8D
Protocol: Cells (1,500) were seeded in a 96-well plate and treated with the indicated inhibitors for 72 h. Then cells were incubated in fresh media with 100 μM resazurin for 1 h. Cell viability was measured by fluorescent plate readers at spectra of 560EX nm/590EM nm. Survival curves were expressed as mean±s.d. relative to DMSO-treated control from three independent experiments.
Cell growth was measured by cell viability, clonogenic cell survival, or soft agar anchorage-independent cell growth assay.

[1] = tested on: phosphorylation of PARP1 at Y907; assay: Western blot of H2O2-induced PARP1 pY907 in MDA-MB-231 cells; type: cell-based, human; details: pre-treatment before H2O2; FIG. 3G
Protocol: For immunoprecipitation (IP), lysates of cells treated as described in the text were precleared with 1 μg of mouse or rabbit IgG and 20 μl of protein G-agarose (Roche, Indianapolis, Ind.) for 1 h at 4° C. Pre-cleared lysates were incubated with 1 μg of primary antibodies or anti-IgG antibody at 4° C. overnight with gentle agitation. Lysates were further incubated with protein G-agarose for 30 min at 4° C. Protein G-agarose pellets were collected and washed three times at 4° C. The immunoprecipitants were subjected to sodium dodecyl sulfate-polyacrylamide gel electrophoresis (SDS-PAGE) and western blot analysis as described previously (Du et al., 2014).

[2] = tested on: PARP1 Y907 phosphorylation; assay: PARP1-pY907 staining of MDA-MB-231 xenograft tumor tissues; type: in vivo, nude mice; details: tissues harvested within 24 h after last treatment; FIG. 4O
Protocol: All animal procedures were conducted under the approval of the Institutional Animal Care and Use Committee (IACUC) at MD Anderson Cancer Center (protocol number 10-14-07231). Female nude mice at 6-8 weeks of age were injected in their mammary fat pads with 0.5×10^6 MDA-MB-231 cells, 2×10^6 HCC1937 cells or 5×10^6 MCF-7 cells. Female FBV at 6-8 weeks of age were injected in their mammary fat pads with 0.5×10^6 A1034 cells. H1993 cells were injected subcutaneously into the right flank of female nude mice at 6-8 weeks of age. For MDA-MB-231 and A1034 cells xenograft mouse models, mice were imaged with the IVIS Imaging System 5 days after injection and were divided into treatment groups (n=10). […] After 2 weeks of treatment, tumor sizes were assessed using with the IVIS Imaging System. Mice were injected with 100 μl of D-luciferin (Xenogen; 15 mg/ml in PBS). After 10 min, mice were anesthetized with a mixture of oxygen and isoflurane (Inhalation Anesthesia System; Matrix Medical, Orchard Park, N.Y.) and underwent imaging with the IVIS Imaging System. Imaging parameters were maintained across experiments for comparative analyses. Tumor samples were collected after final treatment and analyzed by immunofluorescence staining. For toxicity assessment, mice were weighed before and after treatment. Blood samples were collected after treatment. […]

[3] = tested on: γH2AX foci formation in MDA-MB-231 cells; assay: γH2AX foci formation by immunofluorescence confocal microscopy; type: cell-based, human; details: c-Met inhibitor together with PARP inhibitor ABT-888; FIG. 3A
Protocol: Briefly, cells grown on chamber slides (Labtek, Scotts Valley, Calif.) were treated as described in the text. After washing with ice-cold PBS, cells were fixed, permeabilized, and incubated with primary antibodies and fluorescence-labeled secondary antibodies. Immunostained cells were examined using a Zeiss LSM 710 laser-scanning microscope (Carl Zeiss, Thornwood, N.Y.) with a 63×/1.4 objective. The ZEN and AxioVison (Carl Zeiss) and Image J software programs (National Institutes of Health, Bethesda, Md.) were used for data analysis. The mean±s.d. of fluorescence intensity of the indicated antibodies from five images in each treatment group was calculated.

patients with TNBC [4] = details: phase 3; cited from earlier work
patients with TNBC [5] = details: phase 2, combined with chemotherapy; cited from earlier work
[6] = tested on: patients with wild-type BRCA; details: cited from earlier work

With C[C@]1(c2nc3c(C(N)=O)cccc3[nH]2)CCCN1 [ABT-888, Veliparib] the “sensitivity to PARP inhibitor, clonogenic cell survival and cell viability” value (MDA-MB-231 cells) was “more sensitive”.

In the case of CNCc1ccc(-c2[nH]c3cc(F)cc4c3c2CCNC4=O)cc1 [AG014699, Rucaparib], the “sensitivity to PARP inhibitor, clonogenic cell survival and cell viability” value (MDA-MB-231 cells) is reported as “more sensitive”.

For C[C@@H](Oc1cc(-c2cnn(C3CCNCC3)c2)cnc1N)c1c(Cl)ccc(F)c1Cl [crizotinib], the “phosphorylation of PARP1 at Y907 induced by H2O2” value [1] was “abolished phosphorylation of PARP1 at Y907”, the “PARP1 Y907 phosphorylation in tumor tissue” value [2] was “inhibited” and the “γH2AX foci formation (marker of DNA damage)” value [3] was “enhanced γH2AX foci formation”. For the same compound, the “sensitivity of cells to PARP inhibitors” value (MDA-MB-231 cells) was “enhanced the sensitivity of cells to PARP inhibitors”.

For COc1cc2c(Oc3ccc(NC(=O)C4(C(=O)Nc5ccc(F)cc5)CC4)cc3F)ccnc2cc1OCCCN1CCOCC1 [foretinib], the “phosphorylation of PARP1 at Y907 induced by H2O2” value [1] was “abolished phosphorylation of PARP1 at Y907” and the “sensitivity of cells to PARP inhibitors” value (MDA-MB-231 cells) was “enhanced the sensitivity of cells to PARP inhibitors”.

For NC(=O)c1ccc(I)c([N+](=O)[O-])c1 [iniparib], the “overall survival or progression free survival benefit” value (patients with TNBC [4]) is listed as “did not provide significant overall survival or progression free survival benefit” and the clinical benefit (patients with TNBC [5]) is listed as “improved clinical benefits”.

For O=C(c1cc(Cc2n[nH]c(=O)c3ccccc23)ccc1F)N1CCN(C(=O)C2CC2)CC1 [olaparib], the clinical response [6] is given as “demonstrated response”.
